Laboratory results from patent publication USH1923H, “Herbicidal (oxaalkyl) phenyl-substituted heterocycles” (FMC Corporation, priority 1998, dated 2000).

Assays:
soybean [1] = experiment: preemergence herbicidal activity on soybean; assay type: in vivo, Glycine max var. Winchester; conditions: Glycine max, pre-emergence, 0.3 Kg/Ha, after 12-17 days, read-out: PREEMERGENCE HERBICIDAL ACTIVITY (% CONTROL) SOY
Method: (§1) The (oxaalkyl)phenyl-substituted heterocycles of this invention were tested for pre- and postemergence herbicidal activity using a variety of crops and weeds. The test plants included soybean (Glycine max var. Winchester),field corn (Zea mays var. Pioneer 3732), wheat (Triticum aestivum var. Lew), morningglory (Ipomea lacunosa or Ipomea hederacea), […] (Abutilon theophrasti), green foxtail (Setaria viridis), Johnsongrass (Sorghum halepense), blackgrass (Aloepecurus myosuroides), common chickweed (Stellaria media), and common cocklebur (Xanthium strumarium L.).
(§2) For preemergence testing, two disposable fiber flats (8 cm×15 cm×25 cm) for each rate of application of each candidate herbicide were filled to an approximate depth of 6.5 cm with steam-sterilized sandy loam soil. The soil was leveled and impressed with a template to provide five evenly spaced furrows 13 cm long and 0.5 cm deep in each flat. Seeds of soybean, wheat, corn, green foxtail, and johnsongrass were planted in the furrows of the first flat, and seeds of velvetleaf, morningglory, common chickweed, cocklebur, and blackgrass were planted in the furrows of the second flat. The five-row template was employed to firmly press the seeds into place. A topping soil of equal portions of sand and sandy loam soil was placed uniformly on top of each flat to a depth of approximately 0.5 cm. Flats for postemergence testing were prepared in the same manner except that they were planted 9-14 days prior to the preemergence flats and were placed in a greenhouse and watered, thus allowing the seeds to germinate and the foliage to develop.
(§3) In both pre- and postemergence tests, a stock solution of the candidate herbicide was prepared by dissolving 0.27 g of the compound in 20 mL of water/acetone (50/50) containing 0.5% v/v sorbitan monolaurate. For an application rate of 3000 g/ha of herbicide a 10 mL portion of the stock solution was diluted with water/acetone (50/50) to 45 mL.
(§4) The preemergence flats were initially subjected to a light water spray. The four flats were placed two by two along a conveyor belt (i.e., the two preemergence followed by the two postemergence flats). The conveyor belt fed under a spray nozzle mounted about ten inches above the postemergent foliage. The preemergent flats were elevated on the belt so that the soil surface was at the same level below the spray nozzle as the foliage canopy of the postemergent plants. The spray of herbicidal solution was commenced and once stabilized, the flats were passed under the spray at a speed to receive a coverage equivalent of 1000 L/ha. At this coverage the application rates are those shown in the above table for the individual herbicidal solutions. The preemergence flats were watered immediately thereafter, placed in the greenhouse and watered regularly at the soil surface. The postemergence flats were immediately placed in the green-house and not watered until 24 hours after treatment with the test solution. Thereafter they were regularly watered at ground level. After 12-17 days the plants were examined and the phytotoxicity data were recorded.
(§5) Phytotoxicity data were taken as percent control. Percent control was by a method similar to the 0 to 1 00 rating system disclosed in "Research Methods in Weed Science," 2nd ed., B. Truelove, Ed.; Southern Weed Science Society; Auburn University, Auburn, Ala., 1977.

wheat [2] = experiment: preemergence herbicidal activity on wheat; assay type: in vivo, Triticum aestivum var. Lew; conditions: Triticum aestivum, pre-emergence, 0.3 Kg/Ha, after 12-17 days, read-out: PREEMERGENCE HERBICIDAL ACTIVITY (% CONTROL) WHT
Method: as §1, §2, §3, §4, §5

corn [3] = experiment: preemergence herbicidal activity on corn; assay type: in vivo, Zea mays var. Pioneer 3732; conditions: Zea mays, pre-emergence, 0.3 Kg/Ha, after 12-17 days, read-out: PREEMERGENCE HERBICIDAL ACTIVITY (% CONTROL) CRN
Method: as §1, §2, §3, §4, §5

velvetleaf [4] = experiment: preemergence herbicidal activity on velvetleaf; assay type: in vivo; conditions: Abutilon theophrasti, pre-emergence, 0.3 Kg/Ha, after 12-17 days, read-out: PREEMERGENCE HERBICIDAL ACTIVITY (% CONTROL) ABUTH
Method: as §1, §2, §3, §4, §5

morningglory [5] = experiment: preemergence herbicidal activity on morningglory; assay type: in vivo, Ipomea lacunosa or Ipomea hederacea; conditions: Ipomoea, pre-emergence, 0.3 Kg/Ha, after 12-17 days, read-out: PREEMERGENCE HERBICIDAL ACTIVITY (% CONTROL) IPOSS
Method: as §1, §2, §3, §4, §5

chickweed [6] = experiment: preemergence herbicidal activity on chickweed; assay type: in vivo; conditions: Stellaria media, pre-emergence, 0.3 Kg/Ha, after 12-17 days, read-out: PREEMERGENCE HERBICIDAL ACTIVITY (% CONTROL) STEME
Method: as §1, §2, §3, §4, §5

cocklebur [7] = experiment: preemergence herbicidal activity on cocklebur; assay type: in vivo, Xanthium strumarium L.; conditions: Xanthium strumarium, pre-emergence, 0.3 Kg/Ha, after 12-17 days, read-out: PREEMERGENCE HERBICIDAL ACTIVITY (% CONTROL) XANPE
Method: as §1, §2, §3, §4, §5

green foxtail [8] = experiment: preemergence herbicidal activity on green foxtail; assay type: in vivo; conditions: Setaria viridis, pre-emergence, 0.3 Kg/Ha, after 12-17 days, read-out: PREEMERGENCE HERBICIDAL ACTIVITY (% CONTROL) SETVI
Method: as §1, §2, §3, §4, §5

johnsongrass [9] = experiment: preemergence herbicidal activity on johnsongrass; assay type: in vivo; conditions: Sorghum halepense, pre-emergence, 0.3 Kg/Ha, after 12-17 days, read-out: PREEMERGENCE HERBICIDAL ACTIVITY (% CONTROL) SORHA
Method: as §1, §2, §3, §4, §5

soybean [10] = experiment: postemergence herbicidal activity on soybean; assay type: in vivo, Glycine max var. Winchester; conditions: Glycine max, post-emergence, 0.3 Kg/Ha, after 12-17 days, read-out: POSTEMERGENCE HERBICIDAL ACTIVITY (% CONTROL) SOY
Method: as §1, §2, §3, §4, §5

wheat [11] = experiment: postemergence herbicidal activity on wheat; assay type: in vivo, Triticum aestivum var. Lew; conditions: Triticum aestivum, post-emergence, 0.3 Kg/Ha, after 12-17 days, read-out: POSTEMERGENCE HERBICIDAL ACTIVITY (% CONTROL) WHT
Method: as §1, §2, §3, §4, §5

corn [12] = experiment: postemergence herbicidal activity on corn; assay type: in vivo, Zea mays var. Pioneer 3732; conditions: Zea mays, post-emergence, 0.3 Kg/Ha, after 12-17 days, read-out: POSTEMERGENCE HERBICIDAL ACTIVITY (% CONTROL) CRN
Method: as §1, §2, §3, §4, §5

velvetleaf [13] = experiment: postemergence herbicidal activity on velvetleaf; assay type: in vivo; conditions: Abutilon theophrasti, post-emergence, 0.3 Kg/Ha, after 12-17 days, read-out: POSTEMERGENCE HERBICIDAL ACTIVITY (% CONTROL) ABUTH
Method: as §1, §2, §3, §4, §5

morningglory [14] = experiment: postemergence herbicidal activity on morningglory; assay type: in vivo, Ipomea lacunosa or Ipomea hederacea; conditions: Ipomoea, post-emergence, 0.3 Kg/Ha, after 12-17 days, read-out: POSTEMERGENCE HERBICIDAL ACTIVITY (% CONTROL) IPOSS
Method: as §1, §2, §3, §4, §5

chickweed [15] = experiment: postemergence herbicidal activity on chickweed; assay type: in vivo; conditions: Stellaria media, post-emergence, 0.3 Kg/Ha, after 12-17 days, read-out: POSTEMERGENCE HERBICIDAL ACTIVITY (% CONTROL) STEME
Method: as §1, §2, §3, §4, §5

cocklebur [16] = experiment: postemergence herbicidal activity on cocklebur; assay type: in vivo, Xanthium strumarium L.; conditions: Xanthium strumarium, post-emergence, 0.3 Kg/Ha, after 12-17 days, read-out: POSTEMERGENCE HERBICIDAL ACTIVITY (% CONTROL) XANPE
Method: as §1, §2, §3, §4, §5

green foxtail [17] = experiment: postemergence herbicidal activity on green foxtail; assay type: in vivo; conditions: Setaria viridis, post-emergence, 0.3 Kg/Ha, after 12-17 days, read-out: POSTEMERGENCE HERBICIDAL ACTIVITY (% CONTROL) SETVI
Method: as §1, §2, §3, §4, §5

johnsongrass [18] = experiment: postemergence herbicidal activity on johnsongrass; assay type: in vivo; conditions: Sorghum halepense, post-emergence, 0.3 Kg/Ha, after 12-17 days, read-out: POSTEMERGENCE HERBICIDAL ACTIVITY (% CONTROL) SORHA
Method: as §1, §2, §3, §4, §5

blackgrass [19] = experiment: postemergence herbicidal activity on blackgrass; assay type: in vivo, Aloepecurus myosuroides; conditions: Alopecurus myosuroides, post-emergence, 0.3 Kg/Ha, after 12-17 days, read-out: POSTEMERGENCE HERBICIDAL ACTIVITY (% CONTROL) ALOMY
Method: as §1, §2, §3, §4, §5

blackgrass [20] = experiment: preemergence herbicidal activity on blackgrass; assay type: in vivo, Aloepecurus myosuroides; conditions: Alopecurus myosuroides, pre-emergence, 0.3 Kg/Ha, after 12-17 days, read-out: PREEMERGENCE HERBICIDAL ACTIVITY (% CONTROL) ALOMY
Method: as §1, §2, §3, §4, §5

Row | SMILES | activity at 300 g/ha (soybean [1]) | activity at 300 g/ha (wheat [2]) | activity at 300 g/ha (corn [3]) | activity at 300 g/ha (velvetleaf [4]) | activity at 300 g/ha (morningglory [5]) | activity at 300 g/ha (chickweed [6]) | activity at 300 g/ha (cocklebur [7]) | activity at 300 g/ha (green foxtail [8]) | activity at 300 g/ha (johnsongrass [9]) | activity at 300 g/ha (soybean [10]) | activity at 300 g/ha (wheat [11]) | activity at 300 g/ha (corn [12]) | activity at 300 g/ha (velvetleaf [13]) | activity at 300 g/ha (morningglory [14]) | activity at 300 g/ha (chickweed [15]) | activity at 300 g/ha (cocklebur [16]) | activity at 300 g/ha (green foxtail [17]) | activity at 300 g/ha (johnsongrass [18]) | activity at 300 g/ha (blackgrass [19]) | activity at 300 g/ha (blackgrass [20])
1 | Cn1nc(-c2cc(CC(Cl)C(C)(C)O)c(Cl)cc2F)c(Cl)c1OC(F)F (stereo not drawn) [Compound 3] | 60% | 30% | 40% | 100% | 100% | 100% | 100% | 100% | 75% | 95% | 40% | 70% | 100% | 100% | 100% | 100% | 100% | 60% |  | 
2 | CC(=O)OC(C)(C)C(Cl)Cc1cc(-n2c(=O)cc(C(F)(F)F)n(C)c2=O)c(F)cc1Cl (stereo not drawn) [Compound 16, 2-CHLORO-3-METHYL-1-[2-CHLORO-4-FLUORO-5-[1-METHYL-6-TRIFLUOROMETHYL-2,4(1H,3H)-PYRIMIDINDION-3-YL]PHENYL]BUTAN-3-YL ACETATE] | 100% | 70% | 90% | 100% | 100% | 100% | 100% | 100% | 100% | 95% | 60% | 90% | 100% | 90% | 100% | 100% | 100% | 100% | 100% | 
3 | Cc1nn(-c2cc(CC(Cl)COC(=O)NC3CCCCC3)c(Cl)cc2F)c(=O)n1C(F)F (stereo not drawn) [Compound 35] | 30% | 20% | 10% | 100% | 90% | 100% |  | 100% | 50% | 80% | 25% | 70% | 100% | 80% | 30% | 100% | 80% | 60% | 30% | 30%
4 | CCCCCCNC(=O)OCC(Cl)Cc1cc(-n2nc(C)n(C(F)F)c2=O)c(F)cc1Cl (stereo not drawn) [Compound 36] | 70% | 30% | 30% | 100% | 100% | 60% |  | 100% | 70% | 80% | 30% | 80% | 100% | 100% | 100% | 100% | 80% | 75% | 50% | 50%
